Laboratory results as given in US20250026778A1 (TIUMBIO CO., LTD., priority 2021, published 2025).

What follows are compounds tested against T1, his-galectin-3 (Homo sapiens, UniProt P17931) (assay: TR-FRET assay (in vitro galectin-3 binding inhibitory activity test)). Settings: Table 1; compound at 20 μM; 60 nM his-galectin-3, 15 nM biotin-ASF; read-out: % Inhibitory activity (at 20 μM).
T1 construct: purchased Abcam
T1 sequence (P17931 whole entry): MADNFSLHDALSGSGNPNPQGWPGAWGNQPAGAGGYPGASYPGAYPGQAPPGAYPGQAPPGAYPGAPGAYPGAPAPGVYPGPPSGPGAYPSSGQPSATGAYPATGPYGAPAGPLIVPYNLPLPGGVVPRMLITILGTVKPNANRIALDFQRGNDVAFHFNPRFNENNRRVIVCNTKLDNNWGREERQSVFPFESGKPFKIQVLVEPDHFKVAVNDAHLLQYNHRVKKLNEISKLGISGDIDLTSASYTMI
Procedure: TR-FRET Assay (In Vitro Galectin-3 Binding Inhibitory Activity Test)
TR-FRET assay was performed in ½ Area Plate-96 (PerkinElmer). Final concentrations of components in the assay were 60 nM his-galectin-3 (Abcam), 15 nM biotin-ASF (Axxora), 2 nM Mab anti-6×His Tb (Cisbio) and 20 nM SA-d2 (Cisbio). The reaction was performed in a buffer containing 25 mM HEPES, 100 mM NaCl, 0.005% Tween 20 and 0.05% BSA. 20 μL his-galectin-3 and 1 μL compound were mixed first, and then 20 μL biotin-ASF, 5 μL anti-His Tb and 5 μL SA-d2 were added in order. After incubation for at least 3.5 hours at RT, TR-FRET signals were measured at 615/665 nm […] wavelengths using a VICTOR Nivo (PerkinElmer). The positive control used DMSO instead of the compound, and the negative control excluded ASF-biotin. N-acetyl-D-lactosamine (LacNAc), an endogenous ligand unit of galectin-3, was evaluated together as a control substance to compare galectin-3 binding inhibitory activity.
For `O=S1(=O)CCC(CO[C@@H]2[C@@H](n3cc(-c4cc(F)c(F)c(F)c4)nn3)[C@@H](O)[C@@H](CO)O[C@@]23CCCO3)CC1` [Compound A26, 4-((((5S,7R,8R,9S,10R)-8-hydroxy-7-(hydroxymethyl)-9-(4-(3,4,5-trifluorophenyl)-1H-1,2,3-triazol-1-yl)-1,6-dioxaspiro[4.5]decan-10-yl)oxy)methyl)tetrahydro-2H-thiopyran 1,1-dioxide], the inhibition at 20 µM was 25 to 50%. Work on `OC[C@H]1O[C@@]2(CCCO2)[C@H](OCC(F)F)[C@@H](n2cc(-c3cc(F)c(F)c(F)c3)nn2)[C@H]1O` [Compound A27, (5S,7R,8R,9S,10R)-10-(2,2-difluoroethoxy)-7-(hydroxymethyl)-9-(4-(3,4,5-trifluorophenyl)-1H-1,2,3-triazol-1-yl)-1,6-dioxaspiro[4.5]decan-8-ol] yielded an inhibition at 20 µM of 25 to 50%. `Cn1nnc(-c2ccc(CO[C@@H]3[C@@H](n4cc(-c5cc(F)c(F)c(F)c5)nn4)[C@@H](O)[C@@H](CO)O[C@@]34CCCO4)cc2)n1` [Compound A28, (5S,7R,8R,9S,10R)-7-(hydroxymethyl)-10-((4-(2-methyl-2H-tetrazol-5-yl)benzyl)oxy)-9-(4-(3,4,5-trifluorophenyl)-1H-1,2,3-triazol-1-yl)-1,6-dioxaspiro[4.5]decan-8-ol] gave an inhibition at 20 µM of 25 to 50%. In the case of `O=C(CO[C@@H]1[C@@H](n2cc(-c3cc(F)c(F)c(F)c3)nn2)[C@@H](O)[C@@H](CO)O[C@@]12CCCO2)Nc1ccc(Cl)nn1` [Compound A29, N-(6-chloropyridazin-3-yl)-2-(((5S,7R,8R,9S,10R)-8-hydroxy-7-(hydroxymethyl)-9-(4-(3,4,5-trifluorophenyl)-1H-1,2,3-triazol-1-yl)-1,6-dioxaspiro[4.5]decan-10-yl)oxy)acetamide], the inhibition at 20 µM is reported as < 25%. For `OC[C@H]1O[C@]2(OCC[C@H]2c2ccccc2)[C@H](O)[C@@H](n2cc(-c3cc(F)c(F)c(F)c3)nn2)[C@H]1O` [Compound A30, (4S,5S,7R,8R,9S,10R)-7-(hydroxymethyl)-4-phenyl-9-(4-(3,4,5-trifluorophenyl)-1H-1,2,3-triazol-1-yl)-1,6-dioxaspiro[4.5]decane-8,10-diol], the inhibition at 20 µM was < 25%. `O=C(O[C@@H]1[C@@H](n2cc(-c3cc(F)c(F)c(F)c3)nn2)[C@@H](O)[C@@H](CO)O[C@@]12CCCO2)c1ccccc1` [Compound A31, (5S,7R,8R,9S,10R)-8-hydroxy-7-(hydroxymethyl)-9-(4-(3,4,5-trifluorophenyl)-1H-1,2,3-triazol-1-yl)-1,6-dioxaspiro[4.5]decan-10-yl benzoate] gave an inhibition at 20 µM of 25 to 50%. Compound `COC(=O)CO[C@@H]1[C@@H](n2cc(-c3cc(F)c(F)c(F)c3)nn2)[C@@H](O)[C@@H](CO)O[C@@]12CCCCO2` [Compound A32, methyl-2-(((2R,3R,4S,5R,6S)-3-hydroxy-2-(hydroxymethyl)-4-(4-(3,4,5-trifluorophenyl)-1H-1,2,3-triazol-1-yl)-1,7-dioxaspiro[5.5]undecan-5-yl)oxy)acetate] has an inhibition at 20 µM of 25 to 50%. Work on `O=C(CO[C@@H]1[C@@H](n2cc(-c3cc(F)c(F)c(F)c3)nn2)[C@@H](O)[C@@H](CO)O[C@@]12CCCO2)N1CC(F)(F)C1` [Compound A33, 1-(3,3-difluoroazetidin-1-yl)-2-(((5S,7R,8R,9S,10R)-8-hydroxy-7-(hydroxymethyl)-9-(4-(3,4,5-trifluorophenyl)-1H-1,2,3-triazol-1-yl)-1,6-dioxaspiro[4.5]decan-10-yl)oxy)ethanone] yielded an inhibition at 20 µM of 25 to 50%. For `O=C(CO[C@@H]1[C@@H](n2cc(-c3cc(F)c(F)c(F)c3)nn2)[C@@H](O)[C@@H](CO)O[C@@]12CCCO2)N1CC(O)C1` [Compound A34, 2-(((5S,7R,8R,9S,10R)-8-hydroxy-7-(hydroxymethyl)-9-(4-(3,4,5-trifluorophenyl)-1H-1,2,3-triazol-1-yl)-1,6-dioxaspiro[4.5]decan-10-yl)oxy)-1-(3-hydroxyazetidin-1-yl)ethanone], the inhibition at 20 µM was 25 to 50%. In the case of `OC[C@H]1O[C@@]2(CCCO2)[C@H](OCc2ccc3c(c2)OCO3)[C@@H](n2cc(-c3cc(F)c(F)c(F)c3)nn2)[C@H]1O` [Compound A35, (5S,7R,8R,9S,10R)-10-(benzo[d][1,3]dioxol-5-ylmethoxy)-7-(hydroxymethyl)-9-(4-(3,4,5-trifluorophenyl)-1H-1,2,3-triazol-1-yl)-1,6-dioxaspiro[4.5]decan-8-ol], the inhibition at 20 µM is reported as 25 to 50%. Compound `OC[C@H]1O[C@@]2(CCCO2)[C@H](OCc2ccccc2O)[C@@H](n2cc(-c3cc(F)c(F)c(F)c3)nn2)[C@H]1O` [Compound A37, (5S,7R,8R,9S,10R)-10-((2-hydroxybenzyl)oxy)-7-(hydroxymethyl)-9-(4-(3,4,5-trifluorophenyl)-1H-1,2,3-triazol-1-yl)-1,6-dioxaspiro[4.5]decan-8-ol] has an inhibition at 20 µM of 25 to 50%. With `OC[C@H]1O[C@@]2(CCCO2)[C@H](OCc2cccc(O)c2)[C@@H](n2cc(-c3cc(F)c(F)c(F)c3)nn2)[C@H]1O` [Compound A38, (5S,7R,8R,9S,10R)-10-((3-hydroxybenzyl)oxy)-7-(hydroxymethyl)-9-(4-(3,4,5-trifluorophenyl)-1H-1,2,3-triazol-1-yl)-1,6-dioxaspiro[4.5]decan-8-ol] the inhibition at 20 µM was 25 to 50%. For `O=C(O[C@@H]1[C@@H](n2cc(-c3cc(F)c(F)c(F)c3)nn2)[C@@H](O)[C@@H](CO)O[C@@]12CCCO2)c1cccc(F)c1` [Compound A39, (5S,7R,8R,9S,10R)-8-hydroxy-7-(hydroxymethyl)-9-(4-(3,4,5-trifluorophenyl)-1H-1,2,3-triazol-1-yl)-1,6-dioxaspiro[4.5]decan-10-yl 3-fluorobenzoate], the inhibition at 20 µM was 50 to 75%. With `COc1cccc(C(=O)O[C@@H]2[C@@H](n3cc(-c4cc(F)c(F)c(F)c4)nn3)[C@@H](O)[C@@H](CO)O[C@@]23CCCO3)c1` [Compound A40, (5S,7R,8R,9S,10R)-8-hydroxy-7-(hydroxymethyl)-9-(4-(3,4,5-trifluorophenyl)-1H-1,2,3-triazol-1-yl)-1,6-dioxaspiro[4.5]decan-10-yl 3-methoxybenzoate] the inhibition at 20 µM was 25 to 50%. In the case of `OC[C@H]1O[C@@]2(CCCCO2)[C@H](OCc2ccc3c(c2)OCO3)[C@@H](n2cc(-c3cc(F)c(F)c(F)c3)nn2)[C@H]1O` [Compound A44, (2R,3R,4S,5R,6S)-5-(benzo[d][1,3]dioxol-5-ylmethoxy)-2-(hydroxymethyl)-4-(4-(3,4,5-trifluorophenyl)-1H-1,2,3-triazol-1-yl)-1,7-dioxaspiro[5.5]undecan-3-ol], the inhibition at 20 µM is reported as 25 to 50%. `OC[C@H]1O[C@@]2(CCCCO2)[C@H](OCc2nn[nH]n2)[C@@H](n2cc(-c3cc(F)c(F)c(F)c3)nn2)[C@H]1O` [Compound A45, (2R,3R,4S,5R,6S)-5-((2H-tetrazol-5-yl)methoxy)-2-(hydroxymethyl)-4-(4-(3,4,5-trifluorophenyl)-1H-1,2,3-triazol-1-yl)-1,7-dioxaspiro[5.5]undecan-3-ol] showed an inhibition at 20 µM of 50 to 75%. Work on `OC[C@H]1O[C@@]2(CCCCO2)[C@H](OCC(F)F)[C@@H](n2cc(-c3cc(F)c(F)c(F)c3)nn2)[C@H]1O` [Compound A46, (2R,3R,4S,5R,6S)-5-(2,2-difluoroethoxy)-2-(hydroxymethyl)-4-(4-(3,4,5-trifluorophenyl)-1H-1,2,3-triazol-1-yl)-1,7-dioxaspiro[5.5]undecan-3-ol] yielded an inhibition at 20 µM of 25 to 50%. `OC[C@H]1O[C@@]2(CCCCO2)[C@H](OCc2ccccc2O)[C@@H](n2cc(-c3cc(F)c(F)c(F)c3)nn2)[C@H]1O` [Compound A47, (2R,3R,4S,5R,6S)-5-((2-hydroxybenzyl)oxy)-2-(hydroxymethyl)-4-(4-(3,4,5-trifluorophenyl)-1H-1,2,3-triazol-1-yl)-1,7-dioxaspiro[5.5]undecan-3-ol] showed an inhibition at 20 µM of 25 to 50%. `OC[C@H]1O[C@@]2(CCCCO2)[C@H](OCc2cccc(F)c2)[C@@H](n2cc(-c3cc(F)c(F)c(F)c3)nn2)[C@H]1O` [Compound A48, (2R,3R,4S,5R,6S)-5-((3-fluorobenzyl)oxy)-2-(hydroxymethyl)-4-(4-(3,4,5-trifluorophenyl)-1H-1,2,3-triazol-1-yl)-1,7-dioxaspiro[5.5]undecan-3-ol] gave an inhibition at 20 µM of 25 to 50%. `OC[C@H]1O[C@@]2(CCCCO2)[C@H](OCc2cccc(C(F)(F)F)c2)[C@@H](n2cc(-c3cc(F)c(F)c(F)c3)nn2)[C@H]1O` [Compound A49, (2R,3R,4S,5R,6S)-2-(hydroxymethyl)-5-((3-(trifluoromethyl)benzyl)oxy)-4-(4-(3,4,5-trifluorophenyl)-1H-1,2,3-triazol-1-yl)-1,7-dioxaspiro[5.5]undecan-3-ol] was tested, and the inhibition at 20 µM was 25 to 50%. `OC[C@H]1O[C@@]2(CCCCO2)[C@H](OCc2ccccn2)[C@@H](n2cc(-c3cc(F)c(F)c(F)c3)nn2)[C@H]1O` [Compound A50, (2R,3R,4S,5R,6S)-2-(hydroxymethyl)-5-(pyridin-2-ylmethoxy)-4-(4-(3,4,5-trifluorophenyl)-1H-1,2,3-triazol-1-yl)-1,7-dioxaspiro[5.5]undecan-3-ol] was tested, and the inhibition at 20 µM was 25 to 50%.

Same assay, conditions: Table 3, found values; compound at 20 μM; 60 nM his-galectin-3, 15 nM biotin-ASF; read-out: % Inhibitory activity (at 20 μM)
For `COC(=O)CO[C@@H]1[C@@H](n2cc(-c3cc(F)c(F)c(F)c3)nn2)[C@@H](O)[C@@H](CO)O[C@@]12CCCCO2` [Compound A32, methyl-2-(((2R,3R,4S,5R,6S)-3-hydroxy-2-(hydroxymethyl)-4-(4-(3,4,5-trifluorophenyl)-1H-1,2,3-triazol-1-yl)-1,7-dioxaspiro[5.5]undecan-5-yl)oxy)acetate], the inhibition at 20 µM was 36.7%. With `OC[C@H]1O[C@@]2(CCCCO2)[C@H](OCc2cccc(F)c2)[C@@H](n2cc(-c3cc(F)c(F)c(F)c3)nn2)[C@H]1O` [Compound A48, (2R,3R,4S,5R,6S)-5-((3-fluorobenzyl)oxy)-2-(hydroxymethyl)-4-(4-(3,4,5-trifluorophenyl)-1H-1,2,3-triazol-1-yl)-1,7-dioxaspiro[5.5]undecan-3-ol] the inhibition at 20 µM was 43.7%.

Same assay, conditions: read-out: % Inhibitory activity (at 20 μM), Table 1; compound at 20 μM; 60 nM his-galectin-3, 15 nM biotin-ASF
`O=C(O[C@H]1[C@@H](n2cc(-c3cc(F)c(F)c(F)c3)nn2)[C@@H](O)[C@@H](CO)O[C@@]12CCCO2)c1ccccc1` [Compound A42, (5S,7R,8R,9S,10S)-8-hydroxy-7-(hydroxymethyl)-9-(4-(3,4,5-trifluorophenyl)-1H-1,2,3-triazol-1-yl)-1,6-dioxaspiro[4.5]decan-10-yl benzoate] was tested, and the inhibition at 20 µM was < 25%.
